Values of other authors, collected in US20110136741A1 (priority 2008, published 2011).

Legend:
subtype sst2 receptors = subtype sst2 receptors (Homo sapiens, UniProt P30874)
hsst2 = hsst2 (Homo sapiens, UniProt P30874)
Chain of hsst2 (P30874 whole entry): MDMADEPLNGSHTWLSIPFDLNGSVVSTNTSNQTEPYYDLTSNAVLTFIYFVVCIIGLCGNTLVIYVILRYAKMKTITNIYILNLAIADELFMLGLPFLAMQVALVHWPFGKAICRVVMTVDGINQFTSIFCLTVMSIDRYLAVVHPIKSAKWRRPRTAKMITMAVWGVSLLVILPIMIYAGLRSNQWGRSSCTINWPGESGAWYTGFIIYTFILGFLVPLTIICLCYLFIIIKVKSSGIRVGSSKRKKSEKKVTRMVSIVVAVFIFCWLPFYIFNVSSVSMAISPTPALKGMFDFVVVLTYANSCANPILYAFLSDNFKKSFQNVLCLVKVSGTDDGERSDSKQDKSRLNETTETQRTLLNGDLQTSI

Chain of subtype sst2 receptors (P30874 whole entry): as above

| affinity for subtype sst2 receptors (subtype sst2 receptors) | activity towards hsst2 receptor (hsst2) | Compound | half-life in blood [min] |
| --- | --- | --- | --- |
| very high affinity | very active | C[C@@H](O)[C@@H]1NC(=O)[C@H](CCCCN)NC(=O)[C@@H](Cc2c[nH]c3ccccc23)NC(=O)[C@H](Cc2ccccc2)NC(=O)[C@@H](NC(=O)[C@H](N)Cc2ccccc2)CSSC[C@@H](C(=O)N[C@H](CO)[C@@H](C)O)NC1=O [octreotide] | – |
| – | – | CC(O)[C@@H]1NC(=O)[C@H](CCCCN)NC(=O)[C@H](Cc2c[nH]c3ccccc23)NC(=O)[C@H](Cc2ccccc2)NC(=O)[C@H](Cc2ccccc2)NC(=O)[C@H](CC(N)=O)NC(=O)[C@H](CCCCN)NC(=O)[C@@H](NC(=O)CNC(=O)[C@H](C)N)CSSC[C@@H](C(=O)O)NC(=O)[C@H](CO)NC(=O)[C@H]([C@@H](C)O)NC(=O)[C@H](Cc2ccccc2)NC1=O (stereo partly drawn) [somatostatin, Somatostatin-14] | < 3 |
